# Assay results published in PMC6010107, “Identification of new allosteric sites and modulators of AChE through computational and experimental tools” (Journal of Enzyme Inhibition and Medicinal Chemistry, 2018).
# Like-named read-outs stand apart in the source and are kept apart here.
# Tests used:
# AChE [1] = target: T1, AChE (Homo sapiens, UniProt P22303); experiment: AChE inhibition in presence of the competitive inhibitor JTE-907 (cooperative activities); format: biochemical; set-up: key to ΔISC035 (combination minus SC035 alone): difference in % AChE inhibition (combination minus SC035 alone); details: for Effect of combining with JTE-907 on AChE inhibition: sum of activities with JTE-907
# T1 construct: purchased Sigma Chemical Co., Madrid, Spain
# Method: (§1) The method was adapted from Ellman et al.[47] The assay solution consisted of 0.1 M phosphate buffer pH 8, […] 5,5′-dithiobis(2-nitrobenzoic acid) (DTNB, Ellman’s reagent), 0.05 unit/ml AChE (Sigma Chemical Co., Madrid, Spain, Cholinesterase, acetyl human recombinant), and […] acetylthiocholine iodide as the substrate of the enzymatic reaction. The compounds tested were added to the assay solution and the absorbance changes at 412 nm were recorded for 5 min with a UV/Vis Microplate and cuvette Spectrophotometer, Thermo Electron Type, Multiskan Spectrum. The reaction rates were compared, and the per cent inhibition due to the presence of test compounds was calculated. […] All the experiments were performed in triplicate.
# Clearly, both compounds bind to AChE at an allosteric site. […] If our hypothesis is right, the binding of VP2.33 and SC035 to the allosteric site 3 in presence of JTE-907 should show a cooperative behaviour in terms of inhibition of the AChE.
# AChE [2] = target: T1, AChE; details: cited from earlier work
# [3] = target: T2, AChE (Cholinesterase, acetyl human recombinant) (Homo sapiens, UniProt P22303); experiment: biochemical; format: biochemical
# T2 construct: purchased Sigma Chemical Co., Madrid, Spain
# Method: as §1
# AChE [4] = target: T1, AChE; experiment: Kinetic study of AChE inhibition (Lineweaver-Burk); format: biochemical; details: Lineweaver-Burk plots, four substrate and three inhibitor concentrations
# Method: To investigate the mechanism of action of the compounds on AChE, a kinetic analysis was performed. The experiments were carried out using combinations of four substrate concentrations, and three inhibitor concentrations. Double-reciprocal Lineweaver–Burk plotting of the data obtained, in which each point is mean of three different experiments, were analysed.
# Mixed inhibitors cause intersects above or below the x-axis.
# [5] = Table S1 first grid, JTE907 2.5 μM + SC035 25 μM
# [6] = Table S1 first grid, JTE907 5 μM + SC035 50 μM
# [7] = Table S1 first grid, JTE907 20 μM + SC035 25 μM
# [8] = Table S1 first grid, JTE907 20 μM + SC035 50 μM
# [9] = Table S1 second grid, SC035 25 μM + JTE907 5 μM
# [10] = Table S1 second grid, SC035 50 μM + JTE907 2.5 μM
# [11] = Table S1 second grid, SC035 50 μM + JTE907 5 μM
# [12] = Table S1 second grid, SC035 70 μM + JTE907 2.5 μM
# [13] = Table S1 second grid, SC035 70 μM + JTE907 5 μM
# [14] = compound alone, read-out: Individual inhibition of AChE
# [15] = Table 4, compounds selected to bind site 3, read-out: IC50
# T1 sequence (P22303 32-614): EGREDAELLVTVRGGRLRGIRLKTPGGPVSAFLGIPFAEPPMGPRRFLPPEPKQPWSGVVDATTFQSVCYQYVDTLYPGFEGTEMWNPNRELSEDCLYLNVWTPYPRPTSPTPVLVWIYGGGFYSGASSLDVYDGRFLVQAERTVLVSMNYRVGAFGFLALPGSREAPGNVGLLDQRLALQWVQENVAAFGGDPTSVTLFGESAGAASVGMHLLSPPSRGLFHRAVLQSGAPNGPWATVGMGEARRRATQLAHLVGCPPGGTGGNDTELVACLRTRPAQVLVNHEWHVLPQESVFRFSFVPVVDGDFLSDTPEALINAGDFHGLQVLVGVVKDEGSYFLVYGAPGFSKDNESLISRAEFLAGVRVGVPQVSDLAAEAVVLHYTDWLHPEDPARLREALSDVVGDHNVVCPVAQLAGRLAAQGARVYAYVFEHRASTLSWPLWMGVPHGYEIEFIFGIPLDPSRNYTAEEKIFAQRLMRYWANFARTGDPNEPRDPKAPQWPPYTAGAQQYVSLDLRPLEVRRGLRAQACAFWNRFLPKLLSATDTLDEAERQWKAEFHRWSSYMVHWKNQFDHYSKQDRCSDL
# T2 sequence (P22303 32-614): as above
compound,measurement,setting,value
"CCCCCOc1c(OC)ccc2cc(C(=O)NCc3ccc4c(c3)OCO4)c(=O)[nH]c12 [JTE907, reference compound]",ΔIJTE907 (combination minus JTE907 alone),AChE [1]; JTE907 5 μM + VP2.33 25 μM,ΔIJTE907 = 19.86
same,ΔIJTE907 (combination minus JTE907 alone),AChE [1]; JTE907 5 μM + VP2.33 50 μM,ΔIJTE907 = 44.53
same,ΔIJTE907 (combination minus JTE907 alone),AChE [1]; JTE907 10 μM + VP2.33 25 μM,ΔIJTE907 = 11.79
same,ΔIJTE907 (combination minus JTE907 alone),AChE [1]; JTE907 20 μM + VP2.33 25 μM,ΔIJTE907 = 15.66
same,ΔIJTE907 (combination minus JTE907 alone),AChE [1]; JTE907 20 μM + VP2.33 50 μM,ΔIJTE907 = 24.96
same,ΔIJTE907 (combination minus JTE907 alone),AChE [1]; [5],"21,5"
same,ΔIJTE907 (combination minus JTE907 alone),"AChE [1]; Table S1 first grid, JTE907 2.5 μM + SC035 50 μM",33
same,ΔIJTE907 (combination minus JTE907 alone),AChE [1]; [6],"19,52"
same,ΔIJTE907 (combination minus JTE907 alone),AChE [1]; [7],"-3,46"
same,ΔIJTE907 (combination minus JTE907 alone),AChE [1]; [8],"-3,34"
same,ΔIJTE907 (combination minus JTE907 alone),"AChE [1]; Table S1 second grid, SC035 25 μM + JTE907 2.5 μM","18,41"
same,ΔIJTE907 (combination minus JTE907 alone),AChE [1]; [9],"13,78"
same,ΔIJTE907 (combination minus JTE907 alone),AChE [1]; [10],"33,91"
same,ΔIJTE907 (combination minus JTE907 alone),AChE [1]; [11],"17,2"
same,ΔIJTE907 (combination minus JTE907 alone),AChE [1]; [12],"48,02"
same,ΔIJTE907 (combination minus JTE907 alone),AChE [1]; [13],"20,33"
same,Individual inhibition of AChE,"AChE [1]; compound alone, 2.5 μM","14,09±2,85%"
same,Individual inhibition of AChE,"AChE [1]; compound alone, 5 μM","34,22±1,13% and JTE907 5μM (30.34 ± 2.85%)"
same,Individual inhibition of AChE,"AChE [1]; compound alone, 10 μM",JTE907 10 μM (56.78 ± 1.35%)
same,Individual inhibition of AChE,"AChE [1]; compound alone, 20 μM","65,78±2,37% and JTE907 20 μM (65.10 ± 2.37%)"
same,Mechanism of AChE inhibition,AChE [2],pure competitive inhibitor
"O=C(/C=C/c1ccc(O)c(O)c1)O[C@H](Cc1ccc(O)c(O)c1)C(=O)O [Rosmarinic acid, reference compound]",IC50,"[3]; IC50 (μM), Table 3, compounds selected to bind site 2",> 10 µM
same,inhibition at 10 µM,[3]; read-out: % of inhibition at 10 μM,26%
O=C(CN1CCCC1)NN1c2ccccc2Sc2ccc(Cl)cc21 [SC035],ΔISC035 (combination minus SC035 alone),AChE [1]; [5],"-6,74"
same,ΔISC035 (combination minus SC035 alone),"AChE [1]; Table S1 first grid, JTE907 5 μM + SC035 25 μM","2,26"
same,ΔISC035 (combination minus SC035 alone),AChE [1]; [6],"-4,98"
same,ΔISC035 (combination minus SC035 alone),AChE [1]; [7],"19,99"
same,ΔISC035 (combination minus SC035 alone),AChE [1]; [8],"3,72"
same,ΔISC035 (combination minus SC035 alone),AChE [1]; [9],"5,67"
same,ΔISC035 (combination minus SC035 alone),AChE [1]; [10],"-10,72"
same,ΔISC035 (combination minus SC035 alone),AChE [1]; [11],"-7,3"
same,ΔISC035 (combination minus SC035 alone),AChE [1]; [12],"-13,21"
same,ΔISC035 (combination minus SC035 alone),AChE [1]; [13],"-20,77"
same,inhibition at 25 µM,AChE [1]; [14],42.3%
same,inhibition at 50 µM,AChE [1]; [14],58.7%
same,inhibition at 70 µM,"AChE [1]; compound alone, 70 μM, read-out: Individual inhibition of AChE",75.3%
same,Effect of combining with JTE-907 on AChE inhibition,AChE [1],no addition of activities
same,Mechanism of inhibition versus substrate ACh,AChE [4],non-competitive inhibition
same,IC50,[3]; [15],42.1 ± 4.3 µM
NC1=NC(=O)C2N=C(c3ccccc3)C(c3ccccc3)=NC2=N1 (stereo not drawn) [SC251],Mechanism of inhibition versus substrate ACh,AChE [4],non-competitive-mixed
same,IC50,"[3]; Table 3, compounds selected to bind site 2, read-out: IC50",2.76 ± 0.25 µM
OCCNc1nc(-c2cccc3ccccc23)[n+](-c2ccccc2)s1 [VP2.33],ΔIVP2.33 (combination minus VP2.33 alone),AChE [1]; JTE907 5 μM + VP2.33 50 μM,ΔIVP2.33 = 17.16
same,ΔIVP2.33 (combination minus VP2.33 alone),AChE [1]; JTE907 10 μM + VP2.33 25 μM,ΔIVP2.33 = 41.29
same,ΔIVP2.33 (combination minus VP2.33 alone),AChE [1]; JTE907 10 μM + VP2.33 50 μM,ΔIVP2.33 = 27.71
same,ΔIVP2.33 (combination minus VP2.33 alone),AChE [1]; JTE907 20 μM + VP2.33 25 μM,ΔIVP2.33 = 53.48
same,ΔIVP2.33 (combination minus VP2.33 alone),AChE [1]; JTE907 20 μM + VP2.33 50 μM,ΔIVP2.33 = 32.35
same,inhibition at 25 µM,AChE [1]; [14],27.3%
same,inhibition at 50 µM,AChE [1]; [14],57.7%
same,Effect of combining with JTE-907 on AChE inhibition,AChE [1],an effect of cooperative activities
same,Mechanism of inhibition versus substrate ACh,AChE [4],non-competitive inhibition
same,IC50,[3]; [15],49.6 ± 1.5 µM
